Oligonucleotides are written 5' to 3', each unit as a sugar letter and its base; * is a phosphorothioate linkage, no mark a phosphodiester; rarer units and linkages stand in square brackets, end groups in braces. Plain capitals give the bases only. d = 2'-deoxy (DNA)
Columns and labels:
memory T cells = experiment: IMQ pretreatment, washout, rest and restimulation with anti-CD3 and anti-CD28; assay type: cell-based, human; details: IRS661 pretreated cells
Procedure: (§1) Enzyme-linked immunosorbent assay.
To determine if pretreatment of CD4^+ T cells with IMQ would be sufficient to diminish their subsequent cytokine secretion and proliferative response to a full stimulation, memory T cells were pre-treated with IMQ for 2 hours and rested for 12 hours after washout to remove traces of IMQ and then stimulated with anti-CD3 and anti-CD28 for 3 days.

HIV-1^+CD4^+ T cells = experiment: Anergy-related gene expression in in vitro HIV-1-infected CD4+ T cells; assay type: cell-based, human; details: day seven after infection
Text: (§2) Quantification of mRNA expression levels by RT-PCR. RNA was isolated using QIAGEN RNeasy Micro Plus Kit (QIAGEN, Valencia, Calif.), following manufacturer's guidelines and converted to cDNA by reverse transcription (RT) with random hexamers and Multiscribe RT (TQMN, Reverse Transcription Reagents; Applied Biosystems, Foster City, Calif.). For mRNA gene expression assays, probes were purchased from Applied Biosystems (Table 2) and the reactions were set up following manufacturer's guidelines and run on a StepOne Real-Time PCR System (Applied Biosystems). Values are represented as the difference in Ct values normalized to β2-microglobulin for each sample as per the following formula: Relative RNA expression=(2^−dCt)×1000.
To confirm this observation, the expression of anergy-related genes in in vitro HIV-1-infected CD4^+ T cells from five healthy donors in the presence of IRS661 (to inhibit TLR7) or a control sequence at day seven after infection was examined (FIG. 40).

HIV-1 [1] = details: supernatants every three days, 14 days
Text: CD4^+ T cells isolated from HIV-1 infected patients (Table 3) were stimulated in the presence of IRS661 (FIG. 50) or were transduced with two TLR7-specific shRNA (FIG. 51) with supernatant collections every three days for a total of 14 days to measure virus concentration by p24 ELISA.

HIV-1 (NL-432) = experiment: HIV-1 infection of humanized MISTRG mice, viral load; assay type: in vivo, mouse; details: 20 μM IRS661 at day 0 or day 14 after infection
Procedure: Mouse experiments. MISTRG mice (Nature Biotechnology 2014; 32; 364-372) were infected with HIV-1 (50 ng p24) at day 0 in the presence of 20 μM IRS661 or control sequence (at either day 0 or day 14). Serum was obtained at different time points and RNA was isolated by Direct-zol RNA MiniPrep kit (Zymo Research). Viral load was measured by Gag amplification by Real Time PCR
In order to test the role of TLR7 inhibition in HIV-1 infection in vivo, a humanized mouse model (Rongvaux et al., Nat. Biotech., 32:364-372 (2014)) was used. Three groups of mice were infected with HIV-1 (NL-432): one control group, another group that was injected with IRS661 at the same time of HIV-1 infection (day 0), and a third group where IRS661 was injected at the peak of infection (day 14 after HIV-1 infection). […] For those mice that were injected with IRS661 at day 14 after infection (FIG. 55, white dots), viral load was measured at day 21 after infection. One mouse from the control group (black dots) died at day 17.

CD4^+ T cells [2] = experiment: Anergy-related gene expression, TaqMan real-time PCR; assay type: cell-based, human; details: preincubation with IRS661 before IMQ
Text: as §2
To examine whether TLR7 stimulation and subsequent NFAT dephosphorylation induces the expression of anergy-related genes, CD4^+ T cells were incubated for 2-16 hours with IMQ in the presence or absence of the TLR7 inhibitory sequence IRS661 and RNA was isolated to examine the hypothesis that TLR7 engagement induced expression of anergy-related genes previously described. As a control for anergy-related gene expression, CD4^+ T cells were incubated with either ionomycin and PMA or ionomycin alone. […] The effect observed in the regulation of these genes was TLR7-specific, as preincubation of CD4^+ T cells with IRS661 before IMQ treatment abrogated the increase in anergy-related gene expression.

CD4^+ T cells [3] = experiment: Intracellular calcium measurement (INDO-1AM); assay type: cell-based, human
Procedure: Intracellular calcium measurements. Ex vivo isolated CD4^+ T cells were labeled with 5 μM INDO-1AM for one hour at 37° C. in PBS, 1 mM Ca^2+. Cells were washed to remove traces of INDO-1AM, resuspended in buffer at 10^6 cells/ml and incubated for 30 minutes at 37° C. before analysis. When necessary, IRS661 was added at the indicated concentration during the 30 minute incubation. For acquisition, the sample was acquired for approximately 3 minutes to obtain basal levels of calcium and subsequently IMQ or other reagents were added at the indicated concentrations. Samples were acquired for a minimum of 10 minutes on a BD Fortessa instrument and analysed with FlowJo software.

HIV-1 [4] = details: day seven; compared to control cells
Procedure: Furthermore, proviral integrated DNA load was measured at day seven after stimulation in the presence of IRS661 or a control sequence (FIG. 52) and after transduction with TLR7-specific shRNA (FIG. 53) to monitor the cellular viral reservoir.

CD4^+ T cells [5] = experiment: Cytokine secretion by stimulated CD4+ T cells, ELISA; assay type: cell-based, human; details: day 3 after stimulation
Text: (§3) Cell activation and intracellular staining.
as §1

CD4^+ T cells [6] = experiment: Proliferation of CFSE-labeled CD4+ T cells stimulated with anti-CD3 and anti-CD28 in the presence of TLR ligands; assay type: cell-based, human; details: for proliferation of CD4+ T cells (frequency of proliferating cells): compared to control; for inhibition of proliferation, level relative to IMQ: three days
Text: Cell isolation and FACS sorting of T cell populations. Peripheral blood mononuclear cells (PBMC) were isolated from healthy donors by Ficoll Hypaque gradient centrifugation. Total CD4^+ T cells were isolated by negative selection using CD4^+ T cell isolation kit (StemCell Technologies, Vancouver, BC) and stained for fluorescence-activated cell sorting (FACS) with the following antibodies: anti-CD45RO (clone UCHL1), CD45RA (clone H1100), CD25 (clone M-A251) (all from BD Biosciences) and CD127 (clone eBioRDR5) from eBioscience (San Diego, Calif.). The Treg (CD4^+CD25^hiCD127^low/neg) memory T cell (CD4^+CD45RA^−CD45RO^+CD25^low/neg+) and naïve T cell (CD4^+CD45RA^+CD45RO^−CD25^low/neg) populations were sorted on a FACS Aria (BD Biosciences). Unless specified, CD4^+ T cells used in the experiments were Treg-depleted CD4^+ T cells and they were sorted as CD4^+CD25^pos/lowCD127^+. The purity of the sorted CD4^+ T cell population was >98% as assessed by CD3 and CD4 staining after sort. CD14^+ cells were isolated by positive selection using EasySep™ Human CD14 Positive Selection Kit (StemCell Technologies).
as §3
While examining the costimulatory role of TLR on CD4^+ T cells, it was unexpectedly discovered that entry of CD4^+ cells into cell cycle with T cell receptor cross-linking and anti-CD28 was blocked by TLR7 engagement. Specifically, CD4^+ T cells were stimulated with anti-CD3 and anti-CD28 in the presence of different TLR agonists followed by analysis of proliferation and cytokine secretion.

HIV-1NL-D = experiment: HIV-1 in vitro infection of CD4+ T cells; assay type: cell-based; details: for frequency of HIV-1-infected CD4+ T cells: treatment before infection, MOI 0.001
Procedure: Preparation of HIV-1 virus stocks. HIV-1 proviral DsRed-tagged DNA pNL-D (derived from the prototype HIV-1 proviral DNA pNL432) was kindly provided by Dr. Yasuko Tsunetsugu-Yokota. 293T cells were used to prepare viral stocks following published protocols with minor modifications. In brief, 293T cells were plated at 0.5×10^6/well in 12-well plates and transfected with 2 μg pNL-D using Lipofectamine 2000 (Invitrogen) for 48 hours. Culture supernatant was treated with benzonase (1U/ml) for 30 minutes at 37 C, cleared by filtration and titrated on 293T cells. Stocks were stored at −80 C.
HIV-1 in vitro infection. CD4^+ T cells were stimulated with anti-CD3 (1 μg/ml) and anti-CD28 (1 μg/ml) for 48 hours and subsequently infected with HIV-1 at a MOI of 0.001 (concentration within the physiological range). Viability and cytokine secretion was measured every 48 hours for a total of 11 days after infection.
For HIV-1 infection on TLR7-deficient cells, CD4^+ T cells were stimulated as above and transduced with the corresponding lentiviral particles. 48 hours after transduction, the cells were infected with HIV-1NL-D at a MOI of 0.001. Viability and frequency of HIV-1-infected cells were measured at different time points by LIVE/DEAD cell dye staining and fixation with 1% PFA (to avoid DsRed signal loss). For intracellular staining after infection, the cells were restimulated with PMA and Ionomycin in the presence of GolgiStop for 4 hours and the staining was performed as recommended by Grupillo et al.

| Molecule | IFNγ secretion (CD4^+ T cells [5]) | IL-2 secretion (CD4^+ T cells [5]) | IL-4 secretion (CD4^+ T cells [5]) | IL-17 secretion (CD4^+ T cells [5]) | proliferation of CD4+ T cells (frequency of proliferating cells) (CD4^+ T cells [6]) | other results |
| --- | --- | --- | --- | --- | --- | --- |
| 5′-TGCTTGCAAGCTTGCAAGCA-3′ (DNA dT*dG*dC*dT*dT*dG*dC*dA*dA*dG*dC*dT*dT*dG*dC*dA*dA*dG*dC*dA) [IRS661] |  |  |  |  |  | IMQ-induced decrease of IFNγ production (memory T cells): not observed; IMQ-induced decrease of IL-2 production (memory T cells): not observed; expression of 12 anergy-related genes in HIV-1+CD4+ T cells (HIV-1^+CD4^+ T cells): did not upregulate any of these genes; concentration of p24 in culture (HIV-1 [1]): strongly decreased; HIV-1 viral load (HIV-1 (NL-432)): decreases; IMQ-induced increase in anergy-related gene expression (CD4^+ T cells [2]): abrogated; increase in calcium concentration upon IMQ stimulation (CD4^+ T cells [3]; pre-incubation with IRS661): impaired; proviral DNA load (HIV-1 [4]): dramatic decrease |
| CCCCNc1nc(N)c2[nH]c(=O)n(Cc3ccc(C(=O)NCC(=O)O)cc3)c2n1 [CL264] | inhibited | inhibited | inhibited | inhibited | significant decrease |  |
| CCNCc1nc2c(N)nc3ccccc3c2n1CC(C)(C)O [Gardiquimod] | inhibited | inhibited | inhibited | inhibited | significant decrease | inhibition of proliferation, level relative to IMQ (CD4^+ T cells [6]): comparable to IMQ treatment |
| C=CCn1c(=O)n([C@@H]2O[C@H](CO)[C@@H](O)[C@H]2O)c2nc(N)[nH]c(=O)c21 [Loxoribine] | inhibited | inhibited | inhibited | inhibited | significant decrease | inhibition of proliferation, level relative to IMQ (CD4^+ T cells [6]): comparable to IMQ treatment |
| COc1cc(N(CC(=O)OCOC(C)=O)CC(=O)OCOC(C)=O)c2nc(COc3cc(C)ccc3N(CC(=O)OCOC(C)=O)CC(=O)OCOC(C)=O)ccc2c1 [Quin-2 AM] |  |  |  |  |  | frequency of viable cells (HIV-1NL-D): significantly decreased; frequency of HIV-1-infected CD4+ T cells (HIV-1NL-D): marked decrease |
| C[C@H](CCC(=O)O)C[C@H](C)C[C@H](C)C(=O)/C=C(\O)[C@H](C)C[C@H](C)C/C=C/[C@@H](C)[C@@H](O)[C@@H](C)[C@@H](O)C[C@@H]1CC[C@@](C)([C@H]2CC[C@@](C)([C@@H](C)O)O2)O1 [ionomycin] |  |  |  |  |  | frequency of HIV-1-infected CD4+ T cells (HIV-1NL-D): increased |
| Poly(I:C) |  |  |  |  |  | intracellular calcium concentration (CD4^+ T cells [3]; INDO-1AM ratio over time): not observed |

Reference: US10308938B2, “Compositions and methods to activate or inhibit toll-like receptor signaling” (priority 2014, dated 2019)
